From US20260132123A1, “ABAD INHIBITOR COMPOUNDS” (UNIVERSITY COURT OF THE UNIVERSITY OF ST ANDREWS, priority 2021, published 2026)

Key:
[1] = system: mtsABAD HEK293 cells; assay: Lactate dehydrogenase (LDH) cytotoxicity assay; format: cell-based, human; details: 50 μM compound
Protocol: Cell cytotoxicity was assessed via the measurement of lactate dehydrogenase leakage into the culture medium using a commercially available kit from Pierce (Thermo Scientific cat no. 88953). This was carried out in accordance with the kit guidelines, with the activity of Lactate Dehydrogenase (LDH) being calculated from the change in absorbance at […] as NADH is reduced. HEK293 cells overexpressing mts17β-HSD10 were cultured in phenol-red free media (10% fetal bovine serum (FBS), 1 mM sodium pyruvate, 100 units penicillin, 0.1 mg/mL streptomycin and 2 mM L-glutamine) and seeded at a density of 10,000 cells per well (100 μL, 96 well plates). […] Treated cells were incubated at 37° C. and CO2 (5%) for 24 hours before the LDH assay was performed as per the manufacturer's instructions. Spontaneous control (water) and maximum control (lysis buffer) used in accordance with the kit guide. Absorbance was measured at 490 nm and 680 nm using a SpectraMaxM2e spectrophotometer. The measured LDH activity was used to calculate % cytotoxicity using the following equation: […]

[2] = target: T1, 17β-HSD10 (Homo sapiens, UniProt Q99714); assay: 17β-HSD10 (ABAD) enzyme inhibition assay, NADH oxidation read at 340 nm (primary screen and dose response); format: biochemical; details: for EC50 / Max. Effect (%) / Hill Slope / Max. Fit / Min. Fit: recombinant 17βHSD10 enzyme assay; for Hill Slope / Max. Fit / Min. Fit: curve fit
T1 construct: Histev (histidine tag with TEV site) (N, cleaved yes); made in house; host or cells: E. coli BL21-CodonPlus
T1 sequence (Q99714 1-261): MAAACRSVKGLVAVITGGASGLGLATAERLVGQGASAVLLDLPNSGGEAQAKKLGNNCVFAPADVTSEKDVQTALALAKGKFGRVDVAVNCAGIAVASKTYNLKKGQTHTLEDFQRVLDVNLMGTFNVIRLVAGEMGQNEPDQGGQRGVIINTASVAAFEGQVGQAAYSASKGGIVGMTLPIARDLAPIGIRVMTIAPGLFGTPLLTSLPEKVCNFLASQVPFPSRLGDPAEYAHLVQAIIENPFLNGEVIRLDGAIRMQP
How it was run: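 Tag-cleaved recombinant human 17β-HSD10 (2.5 nM) preincubated 15 min with compound in Tris pH 7.4, NaCl, DTT, Tween, BSA (catalase in some runs), then 100 μM acetoacetyl-CoA and NADH added. NADH oxidation by A340 fall: 35 min endpoint for screening at 10 μM; continuous 45 min for dose response.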

[3] = system: mtsABAD HEK293 cells; assay: Alamar Blue cell viability assay; format: cell-based, human; details: 50 μM compound
Protocol: Cell viability was assessed via fluorescence change using the commercially available Alamar Blue from ThermoFisher. HEK293 cells overexpressing mts17β-HSD10 were cultured in phenol-red free media (10% FBS, 1 mM sodium pyruvate, 100 units penicillin, 0.1 mg/mL streptomycin and 2 mM L-glutamine) and seeded at a density of 10,000 cells per well (100 μL, 96 well plates). […] Treated cells were then incubated at 37° C. and CO2 (5%) for 24 hours before the assay was performed as per the manufacturer's instructions. Fluorescence was measured at 530 nm excitation and 590 nm emission using a SpectraMaxM2e spectrophotometer.

Structure (SMILES)	EC50 [2]	Max. Effect (%) [2]	Hill Slope [2]	Max. Fit [2]	Min. Fit [2]	fold less potent than ESC1002033 [2]	IC50 ([2]; 17β-HSD10 inhibition, read-out: IC50)	LDH % Toxicity (50 μM Dose) [1]	Alamar Blue % Viability (50 μM Dose) [3]	LDH % Toxicity (50 μM Dose) ([1]; listed as ESC1002203-01)	17β-HSD10 / ABAD activity in words (SAR discussion) [2]	Alamar Blue % Viability (50 μM Dose) ([3]; listed as ESC1002203-01)
COc1ccc(C(=O)N(CC(C)C)c2cccc(N(C)Cc3cnc[nH]3)c2)cc1 [ESC1002182, N-[3-[1H-imidazol-5-ylmethyl(methyl)amino]phenyl]-N-isobutyl-4-methoxy-benzamide]	331 nM	99%	0.8	103	0			4.733%	87.643%			
CC(C)CN(C(=O)C(C)C)c1cccc(N(C)Cc2cnc[nH]2)c1 [ESC1002165, N-[3-[1H-imidazol-5-ylmethyl(methyl)amino]phenyl]-N-isobutyl-2-methyl-propanamide]	1660 nM	94%	1	100	0			4.074%	88.291%			
Cc1ccsc1C(=O)N1CCC[C@H]1c1ccccc1-c1ccc(C(=O)N(C)C)cc1 [ESC1002317]	912 nM	96%	1	99	0			4.58%	83.39%			
CC(C)CN(C(=O)c1ccccc1F)c1cccc(N(C)Cc2ncc[nH]2)c1 [ESC1002201]	> 20000 nM	41%						5.842%	80.481%			
Cc1ccsc1C(=O)N1CCC[C@H]1c1ccccc1-c1cccc(S(C)(=O)=O)c1 [ESC1002322]	> 20000 nM	41%						6.93%	89.24%			
CC(C)CN(C(=O)c1ccccc1F)c1ccc2c(c1)N(Cc1cnc[nH]1)CCC2 [ESC1002236, 2-fluoro-N-[1-(1H-imidazol-5-ylmethyl)-3,4-dihydro-2H-quinolin-7-yl]-N-isobutyl-benzamide]	> 20000 nM	30%						3.94%	82.69%			
CN(C)CCN(C(=O)c1ccccc1F)c1cccc(N(C)Cc2c[nH]cn2)c1 [ESC1002334, N-[2-(dimethylamino)ethyl]-2-fluoro-N-[3-[1H-imidazol-4-ylmethyl(methyl)amino]phenyl]benzamide]	> 20000 nM	23%						5.17%	92.96%			
CC(C)CN(C(=O)c1ccccc1F)c1cccc(N(C)Cc2cncn2C)c1 [ESC1002199]	> 20000 nM	13%						5.028%	89.524%			
Cc1ccsc1C(=O)N1CCC[C@H]1c1ccccc1-c1cccc(Cl)c1 [ESC1002321]	263 nM	105%	0.92	102	4			5.98%	84.52%			
Cc1ccsc1C(=O)N1CCC[C@H]1c1ccccc1-c1ccc(Cl)c(C(F)(F)F)c1 [ESC1002327]	1450 nM	89%	0.84	100	−7			4.61%	90.36%			
COc1ccc(-c2ccccc2[C@@H]2CCCN2C(=O)c2sccc2C)cc1 (single isomer, unassigned) [ESC1002332]	166 nM	99%	1	100	0			3.52%	87.68%			

More lines, main results first:

EC50 [2]	Max. Effect (%) [2]	Hill Slope [2]	Max. Fit [2]	Min. Fit [2]	fold less potent than ESC1002033 [2]	IC50 ([2]; 17β-HSD10 inhibition, read-out: IC50)	Structure (SMILES)	LDH % Toxicity (50 μM Dose) [1]	Alamar Blue % Viability (50 μM Dose) [3]	LDH % Toxicity (50 μM Dose) ([1]; listed as ESC1002203-01)	17β-HSD10 / ABAD activity in words (SAR discussion) [2]	Alamar Blue % Viability (50 μM Dose) ([3]; listed as ESC1002203-01)
708 nM	99%	1.6	95	−1			CN(Cc1c[nH]cn1)c1cccc(N(CC2CC2)C(=O)c2ccccc2F)c1 [ESC1002342, N-(cyclopropylmethyl)-2-fluoro-N-[3-[1H-imidazol-4-ylmethyl(methyl)amino]phenyl]benzamide]	4.76%	85.04%			
209 nM	102%	1.3	99	−7			Cc1ccc(-c2ccccc2[C@@H]2CCCN2C(=O)c2sccc2C)cc1 [ESC1002337]	4.10%	85.13%			
4170 nM	64%	1.3	57	0			COc1ccc(-c2ccccc2[C@H]2CCCN2C(=O)c2ccccc2F)cn1 (stereo in doubt) [ESC1002119, (2-fluorophenyl)-[2-[2-(6-methoxy-3-pyridyl)phenyl]pyrrolidin-1-yl]methanone]	4.780%	79.180%			
525 nM	97%	1.1	98	0	approximately 3 fold		Cc1ncc(CN(C)c2cccc(N(CC(C)C)C(=O)c3ccccc3F)c2)[nH]1 [ESC1002203]			6.638%	only slightly reduced ABAD inhibition levels	87.491%
295 nM	99%	1	102	0			Cc1ccsc1C(=O)N1CCC[C@H]1c1ccccc1-c1ccccc1Cl [ESC1002324]	5.04%	85.64%			
575 nM	99%	1.2	97	0			Cc1ccsc1C(=O)N1CCC[C@H]1c1ccccc1-c1ccc(C(F)(F)F)cc1 [ESC1002314]	5.98%	87.10%			
275 nM	101%	0.93	100	0			Cc1ccsc1C(=O)N1CCC[C@H]1c1ccccc1-c1ccc(C#N)cc1 [ESC1002316]	3.69%	80.39%			
191 nM	101%	1.1	100	0		191 nM	COc1cccc(-c2ccccc2[C@@H]2CCCN2C(=O)c2sccc2C)c1 [ESC1002338]	4.64%	82.98%			
1480 nM	94%	0.96	101	−3			CCN(C(=O)c1ccccc1F)c1cccc(N(C)Cc2cnc[nH]2)c1 [ESC1002234, N-ethyl-2-fluoro-N-[3-[1H-imidazol-5-ylmethyl(methyl)amino]phenyl]benzamide]	4.81%	86.98%			
6030 nM	76%	0.9	103	−4			CC(C)OCCN(C(=O)c1ccccc1F)c1cccc(N(C)Cc2c[nH]cn2)c1 [ESC1002267]	4.81%	89.57%			
468 nM	106%	1.4	101	7			Cc1ccccc1-c1ccccc1[C@@H]1CCCN1C(=O)c1sccc1C [ESC1002323]	5.03%	96.19%			
1150 nM	95%	1.1	97	0			Cc1ccsc1C(=O)N1CCC[C@H]1c1ccccc1-c1ccc(OC(F)(F)F)cc1 [ESC1002315]	5.91%	84.77%			
